From US10611750B2, “Tetrahydroquinoline compositions as bet bromodomain inhibitors” (FORMA Therapeutics, Inc., priority 2013, dated 2020)
Several values for one entry are separate records, joined by “and”; a condition that tells them apart may be missing. Identical values can stand only once.

Legend:
[1] = target: T1, BRD4 Bromodomain 1 (BRD4 BD1) (Homo sapiens, UniProt O60885); test: AlphaScreen binding assay, BRD4 BD1; details: His-tagged BRD4 BD1 50 nM, biotinylated H4 (1-21) K5/8/12/16 tetra-acetylated peptide 50 nM, compounds listed under IC50 range headings
T1 construct: 44-168 and BRD4 BD2
Protocol: The binding of Example compounds to BRD4 Bromodomain 1 and BRD4 Bromodomain 2 was assessed using 384-well AlphaScreen assay technology. His-epitope tagged BRD4 BD144-168 and BRD4 BD2333-460 were cloned, expressed, and purified to homogeneity. BRD4 BD1 and BRD4 BD2 binding and inhibition was assessed by monitoring the engagement of biotinylated Histone H4 (1-21) K5/8/12/16 tetra-acetylated peptide with the targets using the AlphaScreen technology (PerkinElmer). Specifically, in a 384-well black or white flat bottom plate, BRD4 BD1 (50 nM final) or BRD4 BD2 (100 nM final) was combined with peptide (50 nM final for BD1 or 100 nM final for BD2) in 50 mM HEPES (pH 7.3), 100 mM NaCl, 0.1% (w/v) BSA, and 0.01% (w/v) Triton X-100 either in the presence of DMSO (final 1.25% DMSO) or compound dilution series in DMSO. Alpha streptavidin donor beads and Nickel-chelate acceptor beads were added to a final concentration of 10 μg/ml each. After a minimum of 1 hour equilibration, plates were read on a BMG PHERAstar FS multi-label reader (BMG LabTech). The half maximal inhibitory concentration (IC50) values were calculated using IDBS Activity Base software with a four parameter logistic curve fit by the equation y=A+((B−A)/(1+((C/x)^D))), wherein A denotes the bottom plateau of the curve, B denotes the top plateau of the curve, C denotes the x value at the middle of the curve, D denotes the slope factor, x denotes the original known x values, and y denotes the original known y values. Data was fitted using the Levenburg Marquardt algorithm.

[2] = tested on: acute myelocytic leukemia (AML) cell line MV4-11; test: Oncology cell growth assay (3-day proliferation, CellTiter-Glo); assay type: cell-based; details: Homo sapiens, MV4-11, 72 h, MV4-11 cells, 3000 cells/well, compounds listed under IC50 range headings, read-out: MV411 IC50 (gIC50, inhibition of proliferation)
Protocol: The impact of Example compounds on cancer cell proliferation was determined using the acute myelocytic leukemia (AML) cell line MV4-11 (ATCC) in a 3-day proliferation assay. MV4-11 cells were maintained in RPMI 1640 media supplemented with 10% FBS at 37° C. and an atmosphere of 5% CO2. For compound testing, compound dilutions series were prepared in DMSO via a 3-fold serial dilution from 2 mM to 0.001 mM in 384-well white flat bottom plates. The final compound concentrations in the wells were 10, 3.3, 1.1, 0.37, 0.12, 0.041, 0.013 and 0.0045 μM. MV4-11 cells were plated at a density of 3000 cells/well in final volume of 50 μl culture media and incubated for 72 hours. […] Luminescent signal from the CellTiter-Glo assay was read on an EnVision multilabel plate reader (PerkinElmer). Values for the concentration that inhibited cell growth by 50% (gIC50) between the DMSO control and background control (no cells) were determined using IDBS Activity Base software with a four parameter logistic curve fit by the equation y=A+((B−A)/(1+((C/x)^D))), wherein A denotes the bottom plateau of the curve, B denotes the top plateau of the curve, C denotes the x value at the middle of the curve, D denotes the slope factor, x denotes the original known x values, and y denotes the original known y values. Data was fitted using the Levenburg Marquardt algorithm.

SMILES | IC50 [1] | IC50 [2] [nM]
C[C@H]1CCc2c(ccc(-c3nnc(N)s3)c2OC2CCC2)N1C(=O)C1CC1 [I-127, (S)-(6-(5-amino-1,3,4-thiadiazol-2-yl)-5-cyclobutoxy-2-methyl-3,4-dihydroquinolin-1(2H)-yl)(cyclopropyl)methanone] | 100 to 1000 nM | < 500
C[C@H]1CCc2c(ccc(-c3cnn(C4CCNCC4)c3)c2Oc2cccc(F)c2F)N1C(=O)C1CC1 [I-267, (S)-cyclopropyl(5-(2,3-difluorophenoxy)-2-methyl-6-(1-(piperidin-4-yl)-1H-pyrazol-4-yl)-3,4-dihydroquinolin-1(2H)-yl)methanone] | 100 to 1000 nM | < 500
COC(=O)N1c2ccc(-c3cnn(C4CCN(C)CC4OC)c3)c(OC3CCC3)c2CC[C@@H]1C (stereo partly drawn) [I-292, (2S)-methyl 5-cyclobutoxy-6-(1-(3-methoxy-1-methylpiperidin-4-yl)-1H-pyrazol-4-yl)-2-methyl-3,4-dihydroquinoline-1 (2H)-carboxylate] | 100 to 1000 nM | < 500
C[C@H]1CCc2c(ccc(-n3cc(C4CCNCC4)cn3)c2Oc2ccccc2)N1C(=O)C1CC1 [I-348, (S)-cyclopropyl(2-methyl-5-phenoxy-6-(4-(piperidin-4-yl)-1H-pyrazol-1-yl)-3,4-dihydroquinolin-1(2H)-yl)methanone] | 1000 to 10000 nM | < 500
C[C@H]1CCc2c(ccc(-c3cnn(C)c3)c2OC2CCC2)N1C(=O)C1CC1 [I-55, (S)-(5-cyclobutoxy-2-methyl-6-(1-methyl-1H-pyrazol-4-yl)-3,4-dihydroquinolin-1 (2H)-yl)(cyclopropyl)methanone] | 100 to 1000 nM | < 500
C[C@H]1CCc2c(ccc(-c3cnoc3)c2OC2CCC2)N1C(=O)C1CC1 [I-123, (S)-(5-cyclobutoxy-6-(isoxazol-4-yl)-2-methyl-3,4-dihydroquinolin-1(2H)-yl)(cyclopropyl)methanone] | 1000 to 10000 nM | > 1000
CC(=O)N1c2c(F)cc(-c3cn(C)nn3)c(OC3CCC3)c2CC[C@@H]1C [I-126, (S)-1-(5-cyclobutoxy-8-fluoro-2-methyl-6-(1-methyl-1H-1,2,3-triazol-4-yl)-3,4-dihydroquinolin-1(2H)-yl)ethanone] | 1000 to 10000 nM | > 1000
COC(=O)N1c2ccc(-c3c[nH]c(C4CCNCC4)n3)c(OC3CCC3)c2CC[C@@H]1C [I-303, methyl (S)-5-cyclobutoxy-2-methyl-6-(2-(piperidin-4-yl)-1H-imidazol-4-yl)-3,4-dihydroquinoline-1(2H)-carboxylate] | 100 to 1000 nM | < 500
C[C@H]1CCc2c(ccc(-c3cnn(C4CNC4)c3)c2Oc2ccc(F)cc2F)N1C(=O)C1CC1 [I-265, (S)-(6-(1-(azetidin-3-yl)-1H-pyrazol-4-yl)-5-(2,4-difluorophenoxy)-2-methyl-3,4-dihydroquinolin-1(2H)-yl)(cyclopropyl)methanone] | 100 to 1000 nM | < 500
CC(=O)N1c2c(F)c(F)c(-c3cnn(C4CC4)c3)c(OC3CCC3)c2CC[C@@H]1C [I-75, (S)-1-(5-cyclobutoxy-6-(1-cyclopropyl-1H-pyrazol-4-yl)-7,8-difluoro-2-methyl-3,4-dihydroquinolin-1 (2H)-yl)ethanone] | ≥ 10000 nM | > 1000
COC(=O)N1c2ccc(-c3cn(C)c(N4CCNCC4)n3)c(OC3CCC3)c2CC[C@@H]1C [I-315, (S)-methyl 5-cyclobutoxy-2-methyl-6-(1-methyl-2-(piperazin-1-yl)-1H-imidazol-4-yl)-3,4-dihydroquinoline-1(2H)-carboxylate] | 100 to 1000 nM | < 500
C[C@H]1CCc2c(ccc(-c3cnn(C4CCNCC4)c3)c2Oc2ccccc2F)N1C(=O)C1CC1 [I-260, (S)-cyclopropyl(5-(2-fluorophenoxy)-2-methyl-6-(1-(piperidin-4-yl)-1H-pyrazol-4-yl)-3,4-dihydroquinolin-1(2H)-yl)methanone] | 100 to 1000 nM | < 500

Next, values leading:

IC50 [1] | IC50 [2] [nM] | SMILES
100 to 1000 nM | < 500 | COC(=O)N1c2ccc(-c3cnn(C4CCNC(=O)C4)c3)c(Oc3ccc(F)cc3)c2CC[C@@H]1C (stereo partly drawn) [I-297, (2S)-methyl 5-(4-fluorophenoxy)-2-methyl-6-(1-(2-oxopiperidin-4-yl)-1H-pyrazol-4-yl)-3,4-dihydroquinoline-1(2H)-carboxylate]
100 to 1000 nM | < 500 | CC(=O)N1c2c(F)cc(-c3cnn(C4CC4)c3)c(Oc3ccccc3)c2CC[C@@H]1C [I-241, (S)-1-(6-(1-cyclopropyl-1H-pyrazol-4-yl)-8-fluoro-2-methyl-5-phenoxy-3,4-dihydroquinolin-1(2H)-yl)ethanone]
100 to 1000 nM | < 500 | COC(=O)N1c2ccc(-c3cnn(C4CCNCC4)c3)c(Oc3cc(F)cc(F)c3)c2CC[C@@H]1C [I-182, (S)-methyl 5-(3,5-difluorophenoxy)-2-methyl-6-(1-(piperidin-4-yl)-1H-pyrazol-4-yl)-3,4-dihydroquinoline-1(2H)-carboxylate]
≥ 10000 nM | > 1000 | COC(=O)N1c2ccc(C#N)c(Oc3ccccc3)c2CC[C@@H]1C [I-344, (S)-methyl 6-cyano-2-methyl-5-phenoxy-3,4-dihydroquinoline-1(2H)-carboxylate]
100 to 1000 nM | < 500 | COC(=O)N1c2ccc(-c3cnn(C4CCN(C)CC4OC)c3)c(Oc3ccc(F)cc3)c2CC[C@@H]1C (stereo partly drawn) [I-293, (2S)-methyl 5-(4-fluorophenoxy)-6-(1-(3-methoxy-1-methylpiperidin-4-yl)-1H-pyrazol-4-yl)-2-methyl-3,4-dihydroquinoline-1(2H)-carboxylate]
100 to 1000 nM and ≥ 10000 nM | < 500 | C[C@H]1CCc2c(ccc(C#N)c2Oc2ccccc2)N1C(=O)C1CC1 [I-343, (S)-1-(cyclopropanecarbonyl)-2-methyl-5-phenoxy-1,2,3,4-tetrahydroquinoline-6-carbonitrile]
100 to 1000 nM | < 500 | COC(=O)N1c2c(F)cc(-c3cn(C)nn3)c(Oc3ccccc3)c2CC[C@@H]1C [I-322, (S)-methyl 8-fluoro-2-methyl-6-(1-methyl-1H-1,2,3-triazol-4-yl)-5-phenoxy-3,4-dihydroquinoline-1(2H)-carboxylate]
1000 to 10000 nM | < 500 | Cc1nnc(-c2ccc3c(c2Oc2ccccc2)CC[C@H](C)N3C(=O)C2CC2)s1 [I-220, (S)-cyclopropyl(2-methyl-6-(5-methyl-1,3,4-thiadiazol-2-yl)-5-phenoxy-3,4-dihydroquinolin-1(2H)-yl)methanone]
1000 to 10000 nM | > 1000 | COC(=O)N1c2ccc(-n3cc(N4CCOCC4)cn3)c(Oc3ccccc3)c2CC[C@@H]1C [I-339, (S)-methyl 2-methyl-6-(4-morpholino-1H-pyrazol-1-yl)-5-phenoxy-3,4-dihydroquinoline-1(2H)-carboxylate]
100 to 1000 nM | < 500 | COc1cccc(Oc2c(-c3cnn(C4CCNCC4)c3)ccc3c2CC[C@H](C)N3C(C)=O)c1 [I-156, (S)-1-(5-(3-methoxyphenoxy)-2-methyl-6-(1-(piperidin-4-yl)-1H-pyrazol-4-yl)-3,4-dihydroquinolin-1(2H)-yl)ethanone]
1000 to 10000 nM | < 500 | C[C@H]1CCc2c(ccc(-c3cn(C)nn3)c2Oc2cccc(F)c2)N1C(=O)C1CC1 [I-235, (S)-cyclopropyl(5-(3-fluorophenoxy)-2-methyl-6-(1-methyl-1H-1,2,3-triazol-4-yl)-3,4-dihydroquinolin-1 (2H)-yl)methanone]
< 100 nM | < 500 | C[C@H]1CCc2c(ccc(-c3cn(C4CCNCC4)nn3)c2Oc2ccccc2)N1C(=O)C1CC1 [I-312, (S)-cyclopropyl(2-methyl-5-phenoxy-6-(1-(piperidin-4-yl)-1H-1,2,3-triazol-4-yl)-3,4-dihydroquinolin-1(2H)-yl)methanone]
